Where “and” joins values, the source holds several entries; their conditions need not be identical. Equal values may be shown once. Inconclusive results and toxic doses are left out.

This note sets out measurements from PubChem BioAssay AID330 (DTP/NCI, 2004).

The assay concerns P388 leukemia ip, CD2F1 mice, survival T/C. Put plainly: NCI In Vivo Anticancer Drug Screen. Data for tumor model P388 Leukemia (intraperitoneal) in CD2F1 (CDF1) mice. Conditions: endpoint: median survival time, higher = longer survival. The procedure, abridged:
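Mice carrying the transplanted tumor received test compound or vehicle. Survival was recorded in each group, and the value is the treated-group measurement divided by that of the vehicle-treated control group.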

[1] abbreviates: dose: 50.0 mg/kg/injection, schedule: Q01DX005 (ip), vehicle: saline.
Where [2] appears, read: dose: 50.0 mg/kg/injection, schedule: Q01DX005 (ip), vehicle: saline with Tween-80.
[3] abbreviates: dose: 100.0 mg/kg/injection, schedule: Q01DX005 (ip), vehicle: saline with Tween-80.
The mark [4] stands for this setting: dose: 200.0 mg/kg/injection, schedule: Q01DX005 (ip), vehicle: saline with Tween-80.
Setting [5] is: dose: 60.0 mg/kg/injection, schedule: Q01DX005 (ip), vehicle: saline with Tween-80.

`CCCCCC(=O)Cc1cc(OC)cc(O)c1C(=O)Oc1cc(CCCCC)c(C(=O)O)c(OC)c1`: the T/C (dose: 0.25 mg/kg/injection, schedule: Q01DX009 (ip), vehicle: saline with Tween-80) was 101 % of control; the T/C (dose: 0.5 mg/kg/injection, schedule: Q01DX009 (ip), vehicle: saline with Tween-80) was 104 % of control; the T/C (dose: 1.0 mg/kg/injection, schedule: Q01DX009 (ip), vehicle: saline with Tween-80) is 108 % of control.
For `c1cc[c]([Sn][c]2ccccc2)cc1`, the T/C (dose: 2.5 mg/kg/injection, schedule: Q01DX009 (ip), vehicle: saline) is 151 % of control.
Consider `COC(=O)CC(N)C(=O)O` (stereo not given), for which the T/C is 97 % of control (dose: 12.5 mg/kg/injection, schedule: Q01DX005 (ip), vehicle: saline); 89 % of control (dose: 25.0 mg/kg/injection, schedule: Q01DX005 (ip), vehicle: saline); 99 % of control under setting [1]; 97 % of control (dose: 100.0 mg/kg/injection, schedule: Q01DX005 (ip), vehicle: saline); 94 % of control (dose: 200.0 mg/kg/injection, schedule: Q01DX005 (ip), vehicle: saline).
On to `C/C(=N\NC(=S)N1CCC(C2CCN(C(=S)N/N=C(\C)c3ccccn3)CC2)CC1)c1ccccn1`, for which the T/C by setting is: under setting [2], 112 % of control and 97 % of control; under setting [3], 114 % of control and 122 % of control; under setting [4], 118 % of control; (dose: 400.0 mg/kg/injection, schedule: Q01DX005 (ip), vehicle: saline with Tween-80) 120 % of control.
As for `c1ccc(-c2ccccc2C2=NC2)c(C2=NC2)c1`, the T/C (dose: 25.0 mg/kg/injection, schedule: Q04DX002 (ip), vehicle: saline with Tween-80) is 99 % of control; the T/C (dose: 50.0 mg/kg/injection, schedule: Q04DX002 (ip), vehicle: saline with Tween-80) was 100 % of control; the T/C (dose: 100.0 mg/kg/injection, schedule: Q04DX002 (ip), vehicle: saline with Tween-80) is 99 % of control and 94 % of control.
On to `CCS1=C2C(=O)CCCC2=Nc2ccccc21` (stereo not given), for which the T/C runs as follows: (dose: 15.0 mg/kg/injection, schedule: Q01DX005 (ip), vehicle: saline) 100 % of control; (dose: 30.0 mg/kg/injection, schedule: Q01DX005 (ip), vehicle: saline) 104 % of control; under setting [1], 99 % of control; (dose: 60.0 mg/kg/injection, schedule: Q01DX005 (ip), vehicle: saline) 92 % of control.
As to `CN(C)C(=O)c1ccc([N+](=O)[O-])cc1`, the T/C (dose: 25.0 mg/kg/injection, schedule: Q01DX009 (ip), vehicle: saline with Tween-80) is 119 % of control; the T/C (dose: 50.0 mg/kg/injection, schedule: Q01DX009 (ip), vehicle: saline with Tween-80) is 98 % of control; the T/C (dose: 100.0 mg/kg/injection, schedule: Q01DX009 (ip), vehicle: saline with Tween-80) was 96 % of control; the T/C (dose: 200.0 mg/kg/injection, schedule: Q01DX009 (ip), vehicle: saline with Tween-80) was 104 % of control.
With `CC(=O)Sc1nnc2c3ccccc3n(C(C)=O)c2n1`, the T/C by setting is: (dose: 100.0 mg/kg/injection, schedule: Q04DX003 (ip), vehicle: saline) 99 % of control; (dose: 200.0 mg/kg/injection, schedule: Q04DX003 (ip), vehicle: saline) 97 % of control; (dose: 400.0 mg/kg/injection, schedule: Q04DX003 (ip), vehicle: saline) 105 % of control.
As for `CCN(CC)CCNc1cccc2oc3ccc(O)cc3c(=O)c12`, the T/C was 108 % of control under setting [2], 105 % of control under setting [3] and 108 % of control under setting [4].
As for `OCCN1CCN(CCCN2c3ccccc3Sc3ccc(C(F)(F)F)cc32)CC1`, the T/C is 111 % of control (dose: 7.5 mg/kg/injection, schedule: Q04DX003 (ip), vehicle: saline); 120 % of control (dose: 15.0 mg/kg/injection, schedule: Q04DX003 (ip), vehicle: saline); 123 % of control (dose: 60.0 mg/kg/injection, schedule: Q04DX003 (ip), vehicle: saline).
For `CC1C/C(=C\N=[N+]=[N-])C(=O)O1` (stereo not given), the T/C was 107 % of control (dose: 15.0 mg/kg/injection, schedule: Q01DX005 (ip), vehicle: saline with Tween-80); 105 % of control (dose: 30.0 mg/kg/injection, schedule: Q01DX005 (ip), vehicle: saline with Tween-80); 105 % of control and 94 % of control under setting [5].
Consider `ClCc1ccccc1CCl`, for which the T/C is 106 % of control (dose: 5.0 mg/kg/injection, schedule: Q04DX003 (ip), vehicle: saline with Tween-80); 94 % of control (dose: 10.0 mg/kg/injection, schedule: Q04DX003 (ip), vehicle: saline with Tween-80); 100 % of control (dose: 20.0 mg/kg/injection, schedule: Q04DX003 (ip), vehicle: saline with Tween-80); 117 % of control (dose: 40.0 mg/kg/injection, schedule: Q04DX003 (ip), vehicle: saline with Tween-80).
With `O=C(CCN1CC1)Nc1ccc(NC(=O)CCN2CC2)cc1`, the T/C by setting is: (dose: 10.0 mg/kg/injection, schedule: Q04DX003 (ip), vehicle: Klucel (hydroxypropylcellulose) (HPC)) 198 % of control; (dose: 20.0 mg/kg/injection, schedule: Q04DX003 (ip), vehicle: Klucel (hydroxypropylcellulose) (HPC)) 227 % of control.
For the molecule `c1ccc2c(c1)[nH]c1c2c[n+]2c3c(cccc13)CCC2`, the T/C reads like this: (dose: 8.33 mg/kg/injection, schedule: Q01DX009 (ip), vehicle: saline) 115 % of control; (dose: 18.7 mg/kg/injection, schedule: Q01DX009 (ip), vehicle: saline) 95 % of control.
In the case of `COC(=O)C1CCC[P+]1(C)C` (stereo not given), the T/C (dose: 100.0 mg/kg/injection, schedule: Q01DX001 (ip), vehicle: saline) is 106 % of control and the T/C (dose: 400.0 mg/kg/injection, schedule: Q01DX001 (ip), vehicle: saline) was 101 % of control.
For the molecule `COc1ccc2c3c(ccc2c1)CC1CCCN1C3` (stereo not given), the T/C (dose: 50.0 mg/kg/injection, schedule: Q01DX005 (ip), vehicle: other) was 116 % of control and the T/C (dose: 100.0 mg/kg/injection, schedule: Q01DX005 (ip), vehicle: other) is 104 % of control.
For the molecule `C1CCCc2c(-c3n[nH]c4c3CCCCCC4)n[nH]c2CC1`, the T/C is 100 % of control under setting [5]; 95 % of control (dose: 120.0 mg/kg/injection, schedule: Q01DX005 (ip), vehicle: saline with Tween-80); 100 % of control (dose: 240.0 mg/kg/injection, schedule: Q01DX005 (ip), vehicle: saline with Tween-80).
With `CC(=O)Nc1ccc(-c2ccc(NC(C)=O)cc2)cc1`, the T/C is 105 % of control (dose: 50.0 mg/kg/injection, schedule: Q01DX009 (ip), vehicle: saline); 92 % of control (dose: 100.0 mg/kg/injection, schedule: Q01DX009 (ip), vehicle: saline); 92 % of control (dose: 200.0 mg/kg/injection, schedule: Q01DX009 (ip), vehicle: saline).
Regarding `CCCCCCCCCCCC(=O)c1c(O)c2ccccc2oc1=O`, the T/C runs as follows: under setting [2], 95 % of control; under setting [3], 94 % of control.
In the case of `CC(C)C[CH2][Pb]([Cl])([CH2]CC(C)C)[CH2]CC(C)C`, the T/C was 103 % of control (dose: 0.06 mg/kg/injection, schedule: Q01DX009 (ip), vehicle: saline + alcohol); 108 % of control (dose: 0.13 mg/kg/injection, schedule: Q01DX009 (ip), vehicle: saline + alcohol); 105 % of control (dose: 0.25 mg/kg/injection, schedule: Q01DX009 (ip), vehicle: saline + alcohol); 119 % of control (dose: 0.5 mg/kg/injection, schedule: Q01DX009 (ip), vehicle: saline + alcohol); 118 % of control (dose: 1.0 mg/kg/injection, schedule: Q01DX009 (ip), vehicle: saline + alcohol); 111 % of control (dose: 2.0 mg/kg/injection, schedule: Q01DX009 (ip), vehicle: saline). The T/C runs as follows: (dose: 4.0 mg/kg/injection, schedule: Q01DX009 (ip), vehicle: saline) 110 % of control; (dose: 8.0 mg/kg/injection, schedule: Q01DX009 (ip), vehicle: saline) 100 % of control.
For `O=C(O)C1=CO[C@@H](OC2OC(CO)C(O)C(O)C2O)[C@H]2[C@@H]1C=C[C@]2(O)CO` (stereo not given in full), the T/C was 101 % of control (dose: 4.68 mg/kg/injection, schedule: Q01DX009 (ip), vehicle: Klucel (hydroxypropylcellulose) (HPC)); 97 % of control (dose: 9.37 mg/kg/injection, schedule: Q01DX009 (ip), vehicle: Klucel (hydroxypropylcellulose) (HPC)); 97 % of control (dose: 18.75 mg/kg/injection, schedule: Q01DX009 (ip), vehicle: Klucel (hydroxypropylcellulose) (HPC)); 94 % of control (dose: 37.5 mg/kg/injection, schedule: Q01DX009 (ip), vehicle: Klucel (hydroxypropylcellulose) (HPC)); 98 % of control and 90 % of control (dose: 75.0 mg/kg/injection, schedule: Q01DX009 (ip), vehicle: Klucel (hydroxypropylcellulose) (HPC)); 97 % of control (dose: 150.0 mg/kg/injection, schedule: Q01DX009 (ip), vehicle: Klucel (hydroxypropylcellulose) (HPC)).
